The record followed here is US9694045B2, “Pharmaceutical composition for preventing or treating inflammatory diseases comprising trachelospermi caulis extract and paeonia suffruticosa andrews extract, and method for preparing the same” (SINIL PHARMACEUTICAL CO., LTD., priority 2010, dated 2017).

Type in all cases: in vivo
For one assay, the system named is IL-2. In words: IL-2 production of splenocytes of arthritis-induced mice (ELISA). The settings on record: positive control group (bucillamine 300 mg/kg oral). As to the method: (§1) Bovine type II collagen and adjuvant were separately emulsified, and each emulsion was subcutanesously injected at a dose of 100 μg to the tail. Three weeks later, a booster was achieved by the intraperitoneal injection of 100 μg of bovine type II collagen to induce arthritis. Immediately after the induction, drugs were administered for 21 days and their inhibitory activity against arthritis was measured. The mice were orally administered with suspensions of indomethacin (1 mg/kg), meloxicam (4 mg/kg), bucillamine (300 mg/kg), and the mixture of extracts from Trachelospermi Caulis and Paeonia Suffruticosa Andrews (SI-000902), every day. For comparison, a normal group (arthritis not induced) and a control (administered with vehicle) were employed. The extract mixture (solid extract, soft extract) was dispersed at a concentration of 20, 50, 100, 200 and 400 mg/kg in a 1% carboxymethyl-cellulose sodium solution before the oral administration. Severity of edema was measured in the four feet of each mouse by blind test with the naked eye every three days and evaluated as grades 0 to 4. The spleen was aseptically excised from arthritis-induced mice and used to give a cell suspension. […] The level of the cytokines IFN-γ and IL-2 in the medium was measured using an ELISA kit (R&D systems) to examine the inhibitory effect of the extract mixture on the cytokines.
A general note: An ELISA detects its analyte on a solid surface through an enzyme-linked reagent.

In assay [1] the test system is splenocytes of arthritis-induced mice. The experiment in a line: Splenocyte proliferation in arthritis-induced mice (BrdU ELISA). The note with it: Mus musculus, positive control group (bucillamine 300 mg/kg oral). The protocol:
Bovine type II collagen and adjuvant were separately emulsified, and each emulsion was subcutanesously injected at a dose of 100 μg to the tail. Three weeks later, a booster was achieved by the intraperitoneal injection of 100 μg of bovine type II collagen to induce arthritis. Immediately after the induction, drugs were administered for 21 days and their inhibitory activity against arthritis was measured. The mice were orally administered with suspensions of indomethacin (1 mg/kg), meloxicam (4 mg/kg), bucillamine (300 mg/kg), and the mixture of extracts from Trachelospermi Caulis and Paeonia Suffruticosa Andrews (SI-000902), every day. For comparison, a normal group (arthritis not induced) and a control (administered with vehicle) were employed. The extract mixture (solid extract, soft extract) was dispersed at a concentration of 20, 50, 100, 200 and 400 mg/kg in a 1% carboxymethyl-cellulose sodium solution before the oral administration. Severity of edema was measured in the four feet of each mouse by blind test with the naked eye every three days and evaluated as grades 0 to 4. The spleen was aseptically excised from arthritis-induced mice, minced and filtered through a filter to separate and collect only the cells. […] After incubation, the cells were fixed, and suppressive activity against splenocyte proliferation was determined using a BrdU ELISA cell proliferation assay kit (Roche).

The test system of a further assay is IFN-γ. In words: IFN-γ production of splenocytes of arthritis-induced mice (ELISA). The note with it: positive control group (bucillamine 300 mg/kg oral). As to the method:
as §1

For the compound `CC(C)(S)C(=O)N[C@@H](CS)C(=O)O` [bucillamine], the “suppression of IL-2” value in the assay on IL-2 was 39.1%. In assay [1], the inhibition (commonly the relative decrease from the control value, in per cent) at 300 mg/kg is 51.1%. Also, the “suppression of IFN-γ” value with IFN-γ is recorded as 88.5%.
